Biological target: BSA (Bos taurus, UniProt P02769)
Experiment: Circular dichroism (CD) spectra of BSA with surfactant
Assay type: physicochemical, bovine
Conditions: 0.1 g·L^−1 BSA; 1, 2, 2.5, 4, or 6 mM SDS
Source text: Resolution of CD is ±0.1 degree.
Surfactant-protein complexation is often associated with molecular rearrangement of the protein (i.e., change in protein conformation). […] Protein conformation changes can be probed using circular dichroism (CD) experiments, as illustrated in FIG. 5.

Sequence of BSA (P02769 25-607): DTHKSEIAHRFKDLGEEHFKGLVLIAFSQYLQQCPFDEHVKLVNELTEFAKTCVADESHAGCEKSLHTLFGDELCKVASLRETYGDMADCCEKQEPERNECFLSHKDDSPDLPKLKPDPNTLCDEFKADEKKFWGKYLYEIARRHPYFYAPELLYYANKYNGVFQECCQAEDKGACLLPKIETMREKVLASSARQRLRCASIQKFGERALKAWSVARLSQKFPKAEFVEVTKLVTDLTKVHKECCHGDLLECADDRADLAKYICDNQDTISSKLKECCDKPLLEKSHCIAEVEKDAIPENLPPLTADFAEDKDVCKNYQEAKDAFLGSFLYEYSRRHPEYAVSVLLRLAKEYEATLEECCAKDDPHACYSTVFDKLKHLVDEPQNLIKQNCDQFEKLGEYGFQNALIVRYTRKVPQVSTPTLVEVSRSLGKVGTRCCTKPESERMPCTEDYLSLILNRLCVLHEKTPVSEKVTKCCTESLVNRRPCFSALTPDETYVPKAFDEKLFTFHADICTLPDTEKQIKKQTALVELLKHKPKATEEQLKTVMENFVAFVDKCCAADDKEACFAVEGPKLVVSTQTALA

Structure (SMILES): CCCCCCCCCCCCOS(=O)(=O)[O-].[Na+] [SDS, sodium dodecyl sulfate]
- CD spectrum of BSA with surfactant compared with BSA alone: distinctly different CD spectrum
